The record followed here is patent US20200263231A1, “Fluorogenic dyes for high sensitivity DNA detection” (LIFE TECHNOLOGIES CORPORATION, priority 2016, published 2020).

One data set relates to dsDNA versus ssDNA. As to the kind of experiment: In vitro selectivity dsDNA versus ssDNA. In kind it is binding. On the procedure:
Six compounds (2, 34, 35, 41, 42, and 48) were characterized in in vitro selectivity experiments for double-stranded DNA (dsDNA) versus single-stranded DNA (ssDNA). These compounds were compared against comparative compounds R^1 and R^2.
For each individual compound, the dsDNA and ssDNA fluorescence emission at 10 ng/μL was compared to evaluate in vitro selectivity for dsDNA/ssDNA, as shown in FIG. 4.
Further in vitro selectivity experiments for double-stranded DNA (dsDNA) versus single-stranded DNA (ssDNA) were performed using the methods outlined in Example 3 to compare compounds 2, 34, 41, 42, and 48 to comparative compounds R1 and R2.
For each individual compound, the dsDNA and ssDNA fluorescence emission at 10 ng/μL was calculated to estimate in vitro selectivity, as shown in FIG. 7.

In the next data set the test system is calf thymus DNA. As to the kind of experiment: Fluorescence emission and enhancement of compounds bound to calf thymus DNA. In kind it is binding. As to conditions: 0.8 μM compound with 500 ng/ml calf thymus DNA in TE buffer; for Emission Max: excited at 488 nm; for Fluorescence Enhancement: emission area 500-715 nm compared to compound 1, defined as 1000-fold. The method, then:
Compounds 1-65 were prepared and their fluorescence absorption and emission characteristics were measured. Intrinsic fluorescence of the compounds only (without DNA) was negligible. Emission spectra for the compounds bound to dsDNA were obtained by incubating 0.8 μM compound with 500 ng/ml calf thymus DNA in TE buffer (10 mM Tris-HCl, pH 7.5, 1 mM EDTA) in a final volume of 3 ml. Measurements were made using PerkinElmer LS 55 (F-11) Fluorescence spectrometer. Samples were excited at 488 nm and fluorescence emission was measured with emission slit widths of 2.5 nm. Absorption maxima were determined according to standard techniques.
Fluorescence enhancement measurements of the compounds were obtained by incubating 0.8 μM compound with 500 ng/ml calf thymus DNA with compounds at a final concentration of 0.8 μM in TE buffer. Compound 1 was used as an internal standard to control for variability (e.g., in excitation light intensity). The area-under-curve of fluorescence emission spectra from 500 nm to 715 nm was calculated, and compared to that of compound 1, which was defined as having 1000-fold fluorescence enhancement relative to fluorescence of the compound alone.

Data set [1] is described as follows: UV/VIS absorption spectra. In kind it is physicochemical. As to conditions: 10 μM compound in 50 mM potassium phosphate buffer (pH 7.0). The method, then: The UV/VIS absorption spectra were obtained with 10 μM compound solution in 50 mM potassium phosphate buffer (pH 7.0) in a final volume of 3 mL. Measurements were carried out using a Lambda 245 spectrophotometer from Perkin Elmer.

A further data set concerns ssDNA. As to the kind of experiment: Microplate fluorescence when bound to ssDNA. In kind it is binding. As to conditions: for Ratio to R1, fluorescent emission with ssDNA / fluorescent emission with ssDNA: 500 ng/mL ssDNA; for ssDNA emission: text says 10 ng/μL. On the procedure:
The compounds from FIG. 1 were also characterized with respect to their fluorescence enhancement when bound to ssDNA. The compounds from FIG. 1, R1 and R2 were tested in triplicate. 190 μL of 1 μM compound in 1× Tris-EDTA pH7.5, 0.01% CHAPS was added to 10 μL of 4 different concentrations of ssDNA in wells of 96 well Costar black, clear bottom microplates. Plates were read on a SpectraFluor multifunction microplate reader (Tecan) at 491 nm excitation and 520 nm emission. Fluorescence data with ssDNA are shown in FIG. 3 for the different tested compounds.
Next, the compounds were compared for their fluorescence enhancement when bound to ssDNA as described in Example 1. Fluorescence data with ssDNA are shown in FIG. 6 for the different tested compounds.

The test system of the next data set is dsDNA. As to the kind of experiment: Microplate fluorescence when bound to dsDNA. It counts as binding. As to conditions: 500 ng/mL dsDNA. On the procedure:
Compounds were tested in triplicate for fluorescence enhancement when bound to dsDNA. 190 μL of 1 μM compound in 1× Tris-EDTA, pH 7.5, 0.01% CHAPS was added to 10 μL of 4 different concentrations of dsDNA (0, 25 ng/mL, 200 ng/mL, and 500 ng/mL) in wells of 96 well Costar black, clear bottom microplates. Plates were read on a SpectraFluor multifunction microplate reader (Tecan) at 491 nm excitation and 520 nm emission.
Compounds were tested for fluorescence enhancement when bound to dsDNA as described in Example 3. Fluorescence data with dsDNA are shown in FIG. 5 for the different tested compounds.

[2] abbreviates: Example 3, Table 3, 1 μM compound, 491 nm excitation, 520 nm emission.
The mark [3] stands for this setting: Example 3, Table 4, FIG. 4 says 500 ng/mL.
Where [4] appears, read: Example 3, Table 2, 1 μM compound, 491 nm excitation, 520 nm emission.
[5] abbreviates: Example 4, Table 7, FIG. 7 says 500 ng/mL.

Consider `CCCCN(CCC[N+](C)(C)C)C1=CC(=Cc2sc3ccccc3[n+]2C)c2ccc(OC)cc2N1c1ccccc1.[I-].[I-]` [Compound 35], for which the “ratio of dsDNA emission versus ssDNA emission” value in the data set with dsDNA versus ssDNA (Example 3, Table 4) is 4.4. Further, in the data set with calf thymus DNA, the “Emission Max” value is given as 518 nm and the “Fluorescence Enhancement” value is on record as 1069 fold. For the same compound, in data set [1], the “Absorbance Max” value is listed as 489 nm. Moreover, in the data set on ssDNA (Example 3, Table 3), the “Ratio to R1, fluorescent emission with ssDNA” value (“Ratio to R1 … with ssDNA” for short) is given as 2.3. The “fluorescent emission with ssDNA” value in the data set with ssDNA (setting [2]) amounted to 2515. The compound also gave a ssDNA emission in the data set with ssDNA (setting [3]) of 2515. In addition, the “Ratio to R1, fluorescent emission with dsDNA” value (shortened to “Ratio to R1 … with dsDNA”) in the data set on dsDNA (Example 3, Table 2) is reported as 2.05. Further, the “fluorescent emission with dsDNA” value in the data set on dsDNA (setting [4]) turned out to be 11136.
For the compound `CN(C)CCCN(CCCN(C)C)C1=CC(=Cc2sc3ccccc3[n+]2C)c2ccccc2N1c1ccccc1.[I-]` [Compound R1, reference compound], the “ratio of dsDNA emission versus ssDNA emission” value is recorded as 5.0 in the data set on dsDNA versus ssDNA (Example 3, Table 4) and 5.5 in the data set with dsDNA versus ssDNA (Example 4, Table 7). Besides, the “Ratio to R1 … with ssDNA” value in the data set with ssDNA (Example 3, Table 3) came to 1.0. The “fluorescent emission with ssDNA” value in the data set with ssDNA (setting [2]) is recorded as 1081; in the data set on ssDNA (Example 4, Table 6), 1080. Moreover, the ssDNA emission in the data set with ssDNA (setting [3]) is 1081; with ssDNA (setting [5]), 1080. Besides, the “Ratio to R1 … with dsDNA” value with dsDNA (Example 3, Table 2) was 1.00; with dsDNA (Example 4, Table 5) it was 1.0. The “fluorescent emission with dsDNA” value turned out to be 5441 in the data set on dsDNA (setting [4]) and 5887 with dsDNA (Example 4, Table 5).
Take `CCN(CCCN(C)C)C1=CC(=Cc2sc3ccccc3[n+]2C)c2ccc(OC)cc2N1c1ccccc1.[I-]` [Compound 48]: the “ratio of dsDNA emission versus ssDNA emission” value with dsDNA versus ssDNA (Example 3, Table 4) is listed as 3.4; in the data set with dsDNA versus ssDNA (Example 4, Table 7), 4.6. Also, in the data set with calf thymus DNA, the “Emission Max” value is 520 nm. Also, in the data set on calf thymus DNA, the “Fluorescence Enhancement” value was 1016 fold. The “Absorbance Max” value in data set [1] was found to be 489 nm. Moreover, the “Ratio to R1 … with ssDNA” value in the data set on ssDNA (Example 3, Table 3) is reported as 2.5. In addition, the “fluorescent emission with ssDNA” value in the data set with ssDNA (setting [2]) is 2739; with ssDNA (Example 4, Table 6), 2477. The ssDNA emission with ssDNA (setting [3]) came out at 2739; with ssDNA (setting [5]), 2477. In addition, the “Ratio to R1 … with dsDNA” value was 1.72 in the data set with dsDNA (Example 3, Table 2) and 1.9 with dsDNA (Example 4, Table 5). The “fluorescent emission with dsDNA” value came to 9350 in the data set on dsDNA (setting [4]) and 11400 in the data set on dsDNA (Example 4, Table 5).
`CCCN(CCC[N+](C)(C)C)C1=CC(=Cc2sc3ccccc3[n+]2C)c2ccc(OC)cc2N1c1ccccc1.[I-].[I-]` [Compound 42]: the “ratio of dsDNA emission versus ssDNA emission” value is reported as 3.6 in the data set on dsDNA versus ssDNA (Example 3, Table 4) and 4.4 in the data set on dsDNA versus ssDNA (Example 4, Table 7). The “Emission Max” value with calf thymus DNA stood at 519 nm. Besides, the “Fluorescence Enhancement” value in the data set with calf thymus DNA is 1070 fold. In addition, in data set [1], the “Absorbance Max” value is reported as 494 nm. Also, the “Ratio to R1 … with ssDNA” value with ssDNA (Example 3, Table 3) is 2.8. Besides, the “fluorescent emission with ssDNA” value is 3017 with ssDNA (setting [2]) and 3078 in the data set on ssDNA (Example 4, Table 6). The ssDNA emission with ssDNA (setting [3]) is 3017; in the data set with ssDNA (setting [5]), 3078. Moreover, the “Ratio to R1 … with dsDNA” value in the data set on dsDNA (Example 3, Table 2) came to 2.00; in the data set with dsDNA (Example 4, Table 5), 2.3. The “fluorescent emission with dsDNA” value in the data set on dsDNA (setting [4]) was found to be 10860; with dsDNA (Example 4, Table 5) it was 13580.
Consider `COc1ccc2c(c1)N(c1ccccc1)C(N(CCC[N+](C)(C)C)CCC[N+](C)(C)C)=CC2=Cc1sc2ccccc2[n+]1C.I` [Compound R2, reference compound], for which the “ratio of dsDNA emission versus ssDNA emission” value came to 5.2 with dsDNA versus ssDNA (Example 3, Table 4) and 6.6 with dsDNA versus ssDNA (Example 4, Table 7). Further, the “Ratio to R1 … with ssDNA” value with ssDNA (Example 3, Table 3) worked out at 1.5. Also, the “fluorescent emission with ssDNA” value in the data set with ssDNA (setting [2]) amounted to 1669; with ssDNA (Example 4, Table 6) it was 1512. Also, the ssDNA emission amounted to 1669 in the data set with ssDNA (setting [3]) and 1512 with ssDNA (setting [5]). Further, the “Ratio to R1 … with dsDNA” value in the data set on dsDNA (Example 3, Table 2) stood at 1.59; in the data set on dsDNA (Example 4, Table 5) it was 1.7. Also, the “fluorescent emission with dsDNA” value in the data set on dsDNA (setting [4]) turned out to be 8627; with dsDNA (Example 4, Table 5), 9941.
Regarding `CCC[N+](C)(C)CCCN(C)C1=C/C(=C/c2sc3ccccc3[n+]2C)c2ccccc2N1c1ccccc1.[I-].[I-]` [Compound 24], in the data set with calf thymus DNA, the “Emission Max” value is 522 nm and the “Fluorescence Enhancement” value is recorded as 630 fold. For the same compound, the “Absorbance Max” value in data set [1] is on record as 497 nm.
